Assay results reported in ChEMBL document CHEMBL5365478, “Structure-Based Design and Synthesis of Stapled 10Panx1 Analogues for Use in Cardiovascular Inflammatory Diseases” (J Med Chem, 2023).
Active and inactive are the calls of the source. The calls are words filed in the database; no cut-off is given here. Bridge positions count the residues as written; N and C are the ends. Square brackets hold non-standard residues; d marks the D form. Triazole bridges read from a SMILES are 1,4-linked. Peptide text beside a SMILES is read from it. Lys(N3) = [N-]=[N+]=NCCCC[C@H](N)C(=O)O; Orn(N3) = [N-]=[N+]=NCCC[C@H](N)C(=O)O; Hpra = C#CCC[C@H](N)C(=O)O; Pra = C#CC[C@H](N)C(=O)O; Ahx = NCCCCCC(=O)O

What was measured:
[1] = target: Pannexin-1 (Mus musculus) (UniProt Q9JIP4); experiment: Inhibition of PANX1 in mouse B16-BL6 cells assessed as reduction in HOS-induced ATP release at 100 uM preincubated for 10 mins followed by HOS solution addition and measured after 30 mins by bioluminescence analysis; type: cell-based; details: time 40.0 min
B16-BL6 [2] = experiment: Cytotoxicity against mouse B16-BL6 cells at 1.56 to 100 uM incubated for 30 mins with compound in HOS solution by LDH assay; type: toxicity, cell-based; details: b16-bl6, 0.5 h, dose 1.56-100 µM
B16-BL6 [3] = experiment: Cytotoxicity against mouse B16-BL6 cells at 6.25 to 100 uM incubated for 30 mins with compound in HOS solution by LDH assay; type: toxicity, cell-based; details: b16-bl6, 0.5 h, dose 6.25-100 µM
[4] = target: Pannexin-1 (Mus musculus) (UniProt Q9JIP4); experiment: Inhibition of PANX1 in mouse B16-BL6 cells assessed as reduction in HOS-induced Yo-Pro-1 uptake by measuring reduction in green fluorescence at 12.5 uM preincubated for 10 mins followed by HOS solution addition and measured after 30 mins by fluorescence based analysis; type: cell-based; details: time 40.0 min
[5] = Stability in PBS at pH 7.4 assessed as conserved alpha-helical profile at 200 uM at 20 to 90 degreeC by CD spectra analysis; type: physicochemical; details: buffer, pH 7.4, 200 µM
[6] = target: Pannexin-1 (Homo sapiens) (UniProt Q96RD7); experiment: Inhibition of PANX1 in human EA.hy 926 cells assessed as reduction in HOS-induced ATP release at 12.5 to 100 uM preincubated for 10 mins followed by HOS solution addition and measured after 30 mins by bioluminescence analysis; type: cell-based; details: dose 12.5-100 µM, time 40.0 min
[7] = target: Pannexin-1 (Rattus norvegicus) (UniProt P60570); experiment: Inhibition of PANX1 in rat H9C2 cells assessed as reduction in HOS-induced ATP release at 12.5 to 100 uM preincubated for 10 mins followed by HOS solution addition and measured after 30 mins by bioluminescence analysis; type: cell-based; details: dose 12.5-100 µM, time 40.0 min
EA.hy 926 [8] = experiment: Cytotoxicity against human EA.hy 926 cells at 12.5 to 100 uM incubated for 30 mins with compound in HOS solution by LDH assay; type: toxicity, cell-based; details: ea.hy 926, 0.5 h, dose 12.5-100 µM
[9] = target: Pannexin-1 (Mus musculus) (UniProt Q9JIP4); experiment: Inhibition of PANX1 in mouse B16-BL6 cells assessed as reduction in HOS-induced ATP release at around 10 nM preincubated for 10 mins followed by HOS solution addition and measured after 30 mins by bioluminescence analysis; type: cell-based; details: time 40.0 min
EA.hy 926 [10] = experiment: Antiinflammatory activity in TNF-alpha stimulated human EA.hy926 cells cocultured with human THP-1 cells assessed as inhibition of monocyte adhesion at 100 uM incubated for 15 mins followed by adhesion for 2 hrs; type: functional, cell-based; details: time 135.0 min
[11] = target: Pannexin-1 (Mus musculus) (UniProt Q9JIP4); experiment: Inhibition of PANX1 in mouse B16-BL6 cells assessed as reduction in HOS-induced ATP release preincubated for 10 mins followed by HOS solution addition and measured after 30 mins by bioluminescence analysis; type: cell-based; details: dose 6.25-400 µM, time 40.0 min
[12] = target: Pannexin-1 (Homo sapiens) (UniProt Q96RD7); experiment: Inhibition of PANX1 in human EA.hy 926 cells assessed as reduction in HOS-induced ATP release preincubated for 10 mins followed by HOS solution addition and measured after 30 mins by bioluminescence analysis; type: cell-based; details: time 40.0 min
B16-BL6 [13] = experiment: Cytotoxicity against mouse B16-BL6 cells at 2.5 mM incubated for 30 mins with compound in HOS solution by LDH assay; type: toxicity, cell-based; details: b16-bl6, 0.5 h, 2500 µM
[14] = target: Pannexin-1 (Mus musculus) (UniProt Q9JIP4); experiment: Inhibition of PANX1 in mouse B16-BL6 cells assessed as reduction in HOS-induced Yo-Pro-1 uptake by measuring reduction in green fluorescence at 2.5 mM preincubated for 10 mins followed by HOS solution addition and measured after 30 secs to 30 mins by fluorescence based analysis; type: cell-based; details: time 10.5-40 min
[15] = target: Pannexin-1 (Rattus norvegicus) (UniProt P60570); experiment: Inhibition of PANX1 in rat H9C2 cells assessed as reduction in HOS-induced ATP release at 2.5 mM preincubated for 10 mins followed by HOS solution addition and measured after 30 mins by bioluminescence analysis; type: cell-based; details: time 40.0 min
[16] = target: Pannexin-1 (Homo sapiens) (UniProt Q96RD7); experiment: Inhibition of PANX1 in human EA.hy 926 cells assessed as reduction in HOS-induced ATP release at 2.5 mM preincubated for 10 mins followed by HOS solution addition and measured after 30 mins by bioluminescence analysis; type: cell-based; details: time 40.0 min

Chain of Pannexin-1 (Homo sapiens) (Q96RD7 whole entry): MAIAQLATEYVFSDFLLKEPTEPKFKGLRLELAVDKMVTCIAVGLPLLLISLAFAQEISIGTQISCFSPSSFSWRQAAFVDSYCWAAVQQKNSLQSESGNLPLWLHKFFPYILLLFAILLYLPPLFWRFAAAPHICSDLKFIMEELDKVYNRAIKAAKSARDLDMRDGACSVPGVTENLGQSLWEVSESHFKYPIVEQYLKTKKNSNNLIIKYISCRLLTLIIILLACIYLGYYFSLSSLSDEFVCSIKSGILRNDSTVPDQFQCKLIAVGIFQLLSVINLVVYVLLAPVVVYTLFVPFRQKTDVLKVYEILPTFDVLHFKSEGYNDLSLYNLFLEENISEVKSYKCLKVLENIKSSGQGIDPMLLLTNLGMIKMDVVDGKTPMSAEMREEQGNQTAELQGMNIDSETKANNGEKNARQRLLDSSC
Chain of Pannexin-1 (Rattus norvegicus) (P60570 whole entry): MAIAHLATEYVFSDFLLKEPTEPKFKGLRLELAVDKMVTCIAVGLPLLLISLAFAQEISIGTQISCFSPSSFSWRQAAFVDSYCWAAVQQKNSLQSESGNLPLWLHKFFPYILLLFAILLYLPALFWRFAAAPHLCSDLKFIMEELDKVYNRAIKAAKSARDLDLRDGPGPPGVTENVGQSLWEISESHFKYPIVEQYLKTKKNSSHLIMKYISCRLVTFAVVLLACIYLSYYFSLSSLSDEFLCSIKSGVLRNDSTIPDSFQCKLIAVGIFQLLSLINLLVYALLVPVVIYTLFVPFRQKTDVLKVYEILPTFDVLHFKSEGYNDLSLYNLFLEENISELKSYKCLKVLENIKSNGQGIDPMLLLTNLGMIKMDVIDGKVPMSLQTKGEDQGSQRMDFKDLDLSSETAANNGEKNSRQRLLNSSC
Chain of Pannexin-1 (Mus musculus) (Q9JIP4 whole entry): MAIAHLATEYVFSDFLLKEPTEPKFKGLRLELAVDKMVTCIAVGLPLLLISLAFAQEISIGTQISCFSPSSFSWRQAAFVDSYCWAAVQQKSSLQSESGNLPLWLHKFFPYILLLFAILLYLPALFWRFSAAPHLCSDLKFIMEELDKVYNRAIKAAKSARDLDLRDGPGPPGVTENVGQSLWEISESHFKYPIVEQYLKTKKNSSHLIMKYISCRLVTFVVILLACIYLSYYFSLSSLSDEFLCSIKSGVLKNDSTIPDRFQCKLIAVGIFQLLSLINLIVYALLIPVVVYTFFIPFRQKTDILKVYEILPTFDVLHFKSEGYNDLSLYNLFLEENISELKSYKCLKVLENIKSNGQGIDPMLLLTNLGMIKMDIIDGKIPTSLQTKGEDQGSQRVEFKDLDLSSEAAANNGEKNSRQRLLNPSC

Structure (SMILES): CC(=O)N[C@@H](CO)C(=O)N[C@@H](Cc1c[nH]c2ccccc12)C(=O)N[C@@H](CCCNC(=N)N)C(=O)N[C@@H](CCC(N)=O)C(=O)N[C@@H](C)C(=O)N[C@H]1Cc2cn(nn2)CCC[C@@H](C(=O)N[C@@H](Cc2ccc(O)cc2)C(N)=O)NC(=O)[C@H](CC(=O)O)NC(=O)[C@H](C(C)C)NC(=O)[C@H](Cc2ccccc2)NC1=O (Ac-SWRQA[Pra]FVD[Orn(N3)]Y-NH2; triazole 6-10)
- inhibition [1]: inactive

Structure (SMILES): CC(=O)N[C@@H](CO)C(=O)N[C@@H](Cc1c[nH]c2ccccc12)C(=O)N[C@@H](CCCNC(=N)N)C(=O)N[C@@H](CCC(N)=O)C(=O)N[C@@H](C)C(=O)N[C@@H]1Cc2cn(nn2)CCCC[C@@H](C(=O)N[C@@H](Cc2ccc(O)cc2)C(N)=O)NC(=O)[C@H](CC(=O)O)NC(=O)[C@H](C(C)C)NC(=O)[C@H](Cc2ccccc2)NC1=O
- inhibition [1]: inactive
- Activity (B16-BL6 [2]): Non-Toxic

Structure (SMILES): CC(=O)N[C@H]1CCc2cn(nn2)CCCC[C@@H](C(=O)N[C@@H](C)C(=O)N[C@@H](Cc2ccccc2)C(=O)N[C@H](C(=O)N[C@@H](CC(=O)O)C(=O)N[C@@H](CO)C(=O)N[C@@H](Cc2ccc(O)cc2)C(N)=O)C(C)C)NC(=O)[C@H](CCC(N)=O)NC(=O)[C@H](CCCNC(=N)N)NC(=O)[C@H](Cc2c[nH]c3ccccc23)NC1=O (Ac-[Hpra]WRQ[Lys(N3)]AFVDSY-NH2; triazole 1-5)
- inhibition [1]: Active
- Activity (B16-BL6 [2]): Non-Toxic

Structure (SMILES): CC(=O)N[C@@H](CO)C(=O)N[C@@H](Cc1c[nH]c2ccccc12)C(=O)N[C@@H](CCCNC(=N)N)C(=O)N[C@@H](CCC(N)=O)C(=O)N[C@@H](C)C(=O)N[C@H]1Cc2cn(nn2)CCCC[C@@H](C(=O)N[C@@H](Cc2ccc(O)cc2)C(N)=O)NC(=O)[C@H](CC(=O)O)NC(=O)[C@H](C(C)C)NC(=O)[C@H](Cc2ccccc2)NC1=O
- Activity (B16-BL6 [3]): Non-Toxic
- inhibition [4]: inactive
- Stability [5]: Stable
- inhibition [6]: Active
- inhibition [7]: inactive
- Activity (EA.hy 926 [8]): Non-Toxic
- inhibition [9]: inactive
- inhibition (EA.hy 926 [10]): Active
- inhibition [11]: Dose-Dependent Effect

Structure (SMILES): CC(=O)N[C@H]1Cc2cn(nn2)CCCC[C@@H](C(=O)N[C@@H](C)C(=O)N[C@@H](Cc2ccccc2)C(=O)N[C@H](C(=O)N[C@@H](CC(=O)O)C(=O)N[C@@H](CO)C(=O)N[C@@H](Cc2ccc(O)cc2)C(N)=O)C(C)C)NC(=O)[C@H](CCC(N)=O)NC(=O)[C@H](CCCNC(=N)N)NC(=O)[C@H](Cc2c[nH]c3ccccc23)NC1=O
- Activity (B16-BL6 [3]): Non-Toxic
- inhibition [4]: inactive
- inhibition [6]: Active
- inhibition [7]: inactive
- Activity (EA.hy 926 [8]): Non-Toxic
- inhibition (EA.hy 926 [10]): Active
- inhibition [11]: Dose-Dependent Effect

Structure (SMILES): CC(=O)N[C@@H](CO)C(=O)N[C@@H](Cc1c[nH]c2ccccc12)C(=O)N[C@@H](CCCNC(=N)N)C(=O)N[C@@H](CCC(N)=O)C(=O)N[C@@H](C)C(=O)N[C@@H](C)C(=O)N[C@H]1Cc2cn(nn2)CCCC[C@@H](C(=O)O)NC(=O)[C@H](CO)NC(=O)[C@H](CC(=O)O)NC(=O)[C@H](C(C)C)NC1=O (Ac-SWRQAA[Pra]VDS[Lys(N3)]-OH; triazole 7-11)
- inhibition [1]: inactive

Structure (SMILES): CC(=O)N[C@H]1Cc2cn(nn2)CCCC[C@H](C(=O)N[C@@H](C)C(=O)N[C@@H](Cc2ccccc2)C(=O)N[C@H](C(=O)N[C@@H](CC(=O)O)C(=O)N[C@@H](CO)C(=O)N[C@@H](Cc2ccc(O)cc2)C(N)=O)C(C)C)NC(=O)[C@H](CCC(N)=O)NC(=O)[C@H](CCCNC(=N)N)NC(=O)[C@H](Cc2c[nH]c3ccccc23)NC1=O
- inhibition [1]: inactive
- Activity (B16-BL6 [2]): Non-Toxic

Structure (SMILES): CC(=O)N[C@@H](CO)C(=O)N[C@@H](Cc1c[nH]c2ccccc12)C(=O)N[C@@H](CCCNC(=N)N)C(=O)N[C@@H](CCC(N)=O)C(=O)N[C@@H](C)C(=O)N[C@@H](C)C(=O)N[C@@H](Cc1ccccc1)C(=O)N[C@H]1Cc2cn(nn2)CCCC[C@@H](C(N)=O)NC(=O)[C@H](Cc2ccc(O)cc2)NC(=O)[C@H](CO)NC(=O)[C@H](CC(=O)O)NC1=O (Ac-SWRQAAF[Pra]DSY[Lys(N3)]-NH2; triazole 8-12)
- inhibition [1]: inactive

Structure (SMILES): CC(=O)N[C@@H](CO)C(=O)N[C@@H](Cc1c[nH]c2ccccc12)C(=O)N[C@@H](CCCNC(=N)N)C(=O)N[C@@H](CCC(N)=O)C(=O)N[C@@H](C)C(=O)N[C@@H](C)C(=O)N[C@@H](Cc1ccccc1)C(=O)N[C@H]1Cc2cn(nn2)CCC[C@@H](C(N)=O)NC(=O)[C@H](Cc2ccc(O)cc2)NC(=O)[C@H](CO)NC(=O)[C@H](CC(=O)O)NC1=O (Ac-SWRQAAF[Pra]DSY[Orn(N3)]-NH2; triazole 8-12)
- inhibition [1]: inactive

Structure (SMILES): CC(C)[C@H](NC(=O)[C@H](Cc1ccccc1)NC(=O)[C@H](C)NC(=O)[C@H](C)NC(=O)[C@H](CCC(N)=O)NC(=O)[C@H](CCCNC(=N)N)NC(=O)[C@H](Cc1c[nH]c2ccccc12)NC(=O)CCCCCNC(=O)[C@@H](N)CCCCN)C(=O)N[C@@H](CC(=O)O)C(=O)N[C@@H](CO)C(=O)N[C@@H](Cc1ccc(O)cc1)C(=O)O (H-K[Ahx]WRQAAFVDSY-OH)
- inhibition [12]: Active

Structure (SMILES): CCCN(CCC)S(=O)(=O)c1ccc(C(=O)O)cc1 [PROBENECID]
- Activity (B16-BL6 [13]): Non-Toxic
- inhibition [14]: Active
- inhibition [15]: inactive
- inhibition [16]: Active

Structure (SMILES): CC(=O)N[C@@H](CO)C(=O)N[C@@H](Cc1c[nH]c2ccccc12)C(=O)N[C@@H](CCCNC(=N)N)C(=O)N[C@@H](CCC(N)=O)C(=O)N[C@@H](C)C(=O)N[C@H]1CCc2cn(nn2)CCCC[C@@H](C(=O)N[C@@H](Cc2ccc(O)cc2)C(N)=O)NC(=O)[C@H](CC(=O)O)NC(=O)[C@H](C(C)C)NC(=O)[C@H](Cc2ccccc2)NC1=O (Ac-SWRQA[Hpra]FVD[Lys(N3)]Y-NH2; triazole 6-10)
- inhibition [1]: Active
- Activity (B16-BL6 [2]): Non-Toxic

Structure (SMILES): CC(=O)N[C@H]1CCCCn2cc(nn2)C[C@@H](C(=O)N[C@@H](C)C(=O)N[C@@H](Cc2ccccc2)C(=O)N[C@H](C(=O)N[C@@H](CC(=O)O)C(=O)N[C@@H](CO)C(=O)N[C@@H](Cc2ccc(O)cc2)C(N)=O)C(C)C)NC(=O)[C@H](CCC(N)=O)NC(=O)[C@H](CCCNC(=N)N)NC(=O)[C@H](Cc2c[nH]c3ccccc23)NC1=O (Ac-[Lys(N3)]WRQ[Pra]AFVDSY-NH2; triazole 1-5)
- inhibition [1]: Active
- Activity (B16-BL6 [2]): Non-Toxic

Structure (SMILES): CC(=O)N[C@H]1Cc2cn(nn2)CCC[C@@H](C(=O)N[C@@H](C)C(=O)N[C@@H](Cc2ccccc2)C(=O)N[C@H](C(=O)N[C@@H](CC(=O)O)C(=O)N[C@@H](CO)C(=O)N[C@@H](Cc2ccc(O)cc2)C(N)=O)C(C)C)NC(=O)[C@H](CCC(N)=O)NC(=O)[C@H](CCCNC(=N)N)NC(=O)[C@H](Cc2c[nH]c3ccccc23)NC1=O (Ac-[Pra]WRQ[Orn(N3)]AFVDSY-NH2; triazole 1-5)
- inhibition [1]: inactive

Structure (SMILES): CC(=O)N[C@@H](CO)C(=O)N[C@@H](Cc1c[nH]c2ccccc12)C(=O)N[C@@H](CCCNC(=N)N)C(=O)N[C@@H](CCC(N)=O)C(=O)N[C@@H](C)C(=O)N[C@H]1CCCCn2cc(nn2)C[C@@H](C(=O)N[C@@H](Cc2ccc(O)cc2)C(N)=O)NC(=O)[C@H](CC(=O)O)NC(=O)[C@H](C(C)C)NC(=O)[C@H](Cc2ccccc2)NC1=O (Ac-SWRQA[Lys(N3)]FVD[Pra]Y-NH2; triazole 6-10)
- inhibition [1]: Active
- Activity (B16-BL6 [2]): Non-Toxic
